Read-outs that look alike come from different tables or passages of the source.
Legend:
RBL-2H3 cells = test: Fluorescence-based assay of store-operated calcium entry in RBL-2H3 cells; format: cell-based, rat; set-up: key to RBL-2H3 (IC50, μmol): A < 0.6 μmol; 0.6 μmol ≦ B ≦ 1.2 μmol; C > 1.2 μmol; — = no fit; conditions: thapsigargin store depletion, 50% inhibition of Upslope; for IC50: Rattus norvegicus, RBL-2H3, read-out: RBL-2H3 (IC50, μmol)
Description: B. Fluorescence-based Assay of Store-Operated Calcium Entry in RBL-2H3Cells.
RBL-2H3 cells are obtained from ATCC and maintained in complete medium with 10% FBS at 37° C./6% CO2.
The day prior to performing the assay, RBL-2H3 cells are plated in 50 μL of complete medium in a 384 well plate. Cells are grown at 37° C./6% CO2 overnight and grow to 50-60% confluence by the next day. On the assay day, 1.5 μM Fluo-4-AM dye (Invitrogen) in complete medium is added and incubated for 1 hour at RT. Cells are washed twice in Ca^2+-free HBSS buffer and 35 μL Ca^2+-free HBSS buffer is added to each well. 10 μL of a test compound prepared in a Ca^2+-free HBSS solution at 4.5× of the desired concentration is added to a well and incubated for 5 minutes at RT. 10 μL of thapsigargin prepared in a Ca^2+-free HBSS solution at 5.5× of the desired concentration (5.5 uM) is added to each well and incubated for an additional 25 minutes. The initial baseline fluorescence signal is measured with a FLIPR^384 (Molecular Devices) plate reader. 5 μL of 12× calcium in HBSS (12 mM) is added and changes in cellular fluorescence are measured with the FLIPR^384 plate reader. In each well, the change in the fluorescent signal as a function of time due to calcium entry into the cell is determined by calculating the difference between the fluorescent signal measured 7 seconds after calcium addition and the initial baseline fluorescence signal at time zero (t=0). This parameter is designated Upslope. The IC50 value is calculated as the concentration at which 50% of the Upslope is inhibited.

Orai1/STIM1 = biological target: T1, Orai1/STIM1 (Homo sapiens, UniProt Q96D31); test: Fluorescence-based assay of store-operated calcium entry in Orai1/STIM1 stable cells; format: cell-based; set-up: key to Orai1/STIM1 (IC50, μmol): A < 0.6 μmol; 0.6 μmol ≦ B ≦ 1.2 μmol; C > 1.2 μmol; — = no fit; conditions: Table iii, HEK-293 cells stably expressing human STIM1 and Orai1, 50% inhibition of Peak-Basal fluo-4 signal; for IC50: read-out: Orai1/STIM1 (IC50, μmol)
T1 construct: expressed in transfected cells; host or cells: HEK-293
T1 sequence (Q96D31 whole entry): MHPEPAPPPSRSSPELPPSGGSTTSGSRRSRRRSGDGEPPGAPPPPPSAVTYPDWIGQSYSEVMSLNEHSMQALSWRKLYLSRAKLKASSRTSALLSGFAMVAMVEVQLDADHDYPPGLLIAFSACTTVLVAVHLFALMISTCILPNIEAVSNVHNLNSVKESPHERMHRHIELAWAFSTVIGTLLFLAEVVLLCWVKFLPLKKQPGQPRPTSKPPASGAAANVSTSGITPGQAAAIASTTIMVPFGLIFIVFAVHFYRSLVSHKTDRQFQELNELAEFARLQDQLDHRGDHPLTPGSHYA
Description: A. Fluorescence-based Assay of Store-Operated Calcium Entry in Orai1/STIM1 Stable Cells.
Cells stably expressing recombinant human STIM1 and Orai1 are generated by transfecting a human Orai1 expression plasmid (pcDNA3.1-Orai1-cmyc) into HEK-293 cells stably overexpressing human STIM1 (Roos et al. 2005 JCB 169(3): 435-445). Colonies of cells stably expressing both STIM1 and Orai1 proteins are selected and then subcloned by limiting dilution. Cells were cultured at 37° C./6% CO2 in complete medium with 10% FBS and appropriate selection markers.
The day prior to performing the assay Orai1/STIM1 stable cells are plated in 50 μL of complete medium at 90-95% confluence in a 384 well plate. Cells are grown at 37° C./6% CO2 overnight. On the day of the assay, 1.5 μM fluo-4-AM (Invitrogen) in complete medium is added to the cells, which are then incubated for 1 hour at RT. Cells are washed once in Ca^2+-free HBSS (Hank's buffered saline solution) and 35 μl of Ca^2+-free HBSS is added to each well. Test compounds are added to wells in a 10 μL Ca^2+-free HBSS solution, prepared at 4.5× the desired final concentration, and incubated for 30 minutes at RT. The initial baseline fluorescence signal is then measured with a FLIPR^384 (Molecular Devices) plate reader. Calcium entry is initiated by adding 5 μl of 10× CaCl2 (10 mM) in HBSS, and changes in cellular fluorescence are measured with the FLIPR^384 plate reader. In each well, the magnitude of the fluorescence signal as a result of calcium entry into the cell is determined by calculating the difference between the peak fluorescence signal measured after calcium addition and the initial baseline fluorescence signal (designated Peak-Basal). IC50 values are typically calculated as the concentration that inhibited 50% of the Peak-Basal signal (Table A).

Row | SMILES | IC50 (RBL-2H3 cells; Table iii) [nM] | IC50 (Orai1/STIM1) [nM] | Orai1/STIM1 (IC50, μmol) (Orai1/STIM1) | RBL-2H3 (IC50, μmol) (RBL-2H3 cells; Table iii) | IC50 (RBL-2H3 cells; Table iv) [nM]
1 | Cn1nc(C(F)(F)F)cc1-c1ccc(NCc2c(F)cncc2F)cc1F | < 600 | < 600 |  |  | 
2 | Cn1nc(C(F)(F)F)cc1-c1ccc(NCc2ccc(F)cc2F)cc1F | < 600 | < 600 |  |  | 
3 | Cn1nc(C(F)(F)F)cc1-c1ccc(NCc2c(F)cc(F)cc2F)cc1F | < 600 | < 600 |  |  | 
4 | Cn1nc(C(F)(F)F)cc1-c1ccc(NCc2ccncc2F)cc1F | < 600 | < 600 |  |  | 
5 | Cn1nc(C(F)(F)F)cc1-c1ccc(NCc2cncc(F)c2)cc1F | < 600 | 600 to 1200 |  |  | 
6 | Cc1cnccc1CNc1ccc(-c2cc(C(F)(F)F)nn2C)c(F)c1 | < 600 | 600 to 1200 |  |  | 
7 | Cc1nnsc1CNc1ccc(-c2cc(C(F)(F)F)nn2C)c(F)c1 | 600 to 1200 | > 1200 |  |  | 
8 | Cn1nc(C(F)(F)F)cc1-c1ccc(NCc2c(F)cccc2F)c(F)c1 | < 600 | < 600 |  |  | 
9 | Cn1nc(C(F)(F)F)cc1-c1ccc(NCc2ccccc2F)c(F)c1 | > 1200 | 600 to 1200 |  |  | 
10 | Cn1nc(C(F)(F)F)cc1-c1ccc(NCc2c(F)cncc2F)c(F)c1 | < 600 | 600 to 1200 |  |  | 
11 | Cn1nc(C(F)(F)F)cc1-c1c(F)cc(NCc2c(F)cccc2F)cc1F | < 600 | 600 to 1200 |  |  | 
12 | Cn1nc(C(F)(F)F)cc1-c1c(F)cc(NCc2ccccc2F)cc1F | < 600 |  | Max inh. <50% |  | 
13 | Cn1nc(C(F)(F)F)cc1-c1c(F)cc(NCc2ccc(F)cc2F)cc1F | < 600 |  | — |  | 
14 | Cn1nc(C(F)(F)F)cc1-c1ccc(NCc2c(F)cccc2F)cc1 | < 600 | < 600 |  |  | 
15 | Cn1nc(C(F)(F)F)cc1-c1ccc(NCc2ccccc2F)cc1 | < 600 | < 600 |  |  | 
16 | Cn1nc(C(F)(F)F)cc1-c1ccc(NCc2ccc(F)cc2F)cc1 | < 600 | < 600 |  |  | 
17 | Cc1cc2c(cc1-c1ccc(NCc3c(C)cccc3F)cc1F)OC(F)(F)O2 | < 600 |  | Max inh. <50% |  | 
18 | Cc1nnsc1CNc1ccc(-n2nc(C(F)(F)F)cc2C)cc1 |  |  | — | — | 
19 | Cc1nc(C(F)(F)F)cn1-c1ccc(NCc2c(F)cc(F)cc2F)cc1F | < 600 | < 600 |  |  | 
20 | Cc1nc(C(F)(F)F)cn1-c1ccc(NCc2c(F)cncc2F)cc1F | < 600 | < 600 |  |  | 
21 | Cc1nc(C(F)(F)F)cn1-c1ccc(NCc2c(F)ccc(F)c2F)cc1F | < 600 | < 600 |  |  | 
22 | Cc1nc(C(F)(F)F)cn1-c1ccc(NCc2ccccc2F)cc1 | < 600 | < 600 |  |  | 
23 | Cc1nc(C(F)(F)F)cn1-c1ccc(NCc2c(F)cccc2F)cc1 | < 600 | < 600 |  |  | 
24 | Cc1nc(C(F)(F)F)cn1-c1ccc(NCc2c(F)cc(F)cc2F)cc1 | < 600 | < 600 |  |  | 
25 | Cc1nc(C(F)(F)F)cn1-c1ccc(NCc2c(F)ccc(F)c2F)cc1 | < 600 | < 600 |  |  | 

Row | SMILES | IC50 (RBL-2H3 cells; Table iii) [nM] | IC50 (Orai1/STIM1) [nM] | Orai1/STIM1 (IC50, μmol) (Orai1/STIM1) | RBL-2H3 (IC50, μmol) (RBL-2H3 cells; Table iii) | IC50 (RBL-2H3 cells; Table iv) [nM]
26 | Cc1nn(C(F)F)cc1-c1ccc(NCc2ccccc2F)cc1 | < 600 | 600 to 1200 |  |  | 
27 | Cc1nn(C(F)F)cc1-c1ccc(NCc2c(F)cccc2F)cc1 | < 600 | < 600 |  |  | 
28 | Cc1nn(C(F)F)cc1-c1ccc(NCc2c(F)cc(F)cc2F)cc1 | < 600 | < 600 |  |  | 
29 | Cc1cccc(F)c1CNc1ccc(-c2cn(C(F)F)nc2C)cc1 | < 600 | < 600 |  |  | 
30 | Cc1nn(C(F)F)cc1-c1ccc(NCc2c(F)ccc(F)c2F)cc1 | < 600 | < 600 |  |  | 
31 | Cc1ccccc1CNc1ccc(-c2cn(C(F)F)nc2C)c(F)c1 | < 600 | 600 to 1200 |  |  | 
32 | Cc1nn(C(F)F)cc1-c1ccc(NCc2ccccc2F)cc1F | < 600 | < 600 |  |  | 
33 | Cc1cccc(F)c1CNc1ccc(-c2cn(C(F)F)nc2C)c(F)c1 | < 600 | < 600 |  |  | 
34 | Cc1nn(C(F)F)cc1-c1ccc(NCc2c(F)cccc2F)cc1F | < 600 | < 600 |  |  | 
35 | Cc1nn(C(F)F)cc1-c1ccc(NCc2c(F)cc(F)cc2F)cc1F | < 600 | < 600 |  |  | 
36 | CCn1nc(C(F)(F)F)cc1-c1ccc(NCc2ccccc2F)cc1 | < 600 | < 600 |  |  | 
37 | CCn1nc(C(F)(F)F)cc1-c1ccc(NCc2c(F)cccc2F)cc1 | < 600 | < 600 |  |  | 
38 | CCn1nc(C(F)(F)F)cc1-c1ccc(NCc2ccccc2F)cc1F | < 600 | < 600 |  |  | 
39 | CCn1nc(C(F)(F)F)cc1-c1ccc(NCc2c(F)cccc2F)cc1F | < 600 | 600 to 1200 |  |  | 
40 | Cc1ccccc1CNc1ccc(-c2nc(C(F)(F)F)sc2C)cc1 | < 600 | 600 to 1200 |  |  | 
41 | Cc1sc(C(F)(F)F)nc1-c1ccc(NCc2ccccc2F)cc1 | < 600 | < 600 |  |  | 
42 | Cc1cccc(F)c1CNc1ccc(-c2nc(C(F)(F)F)sc2C)cc1 | < 600 | 600 to 1200 |  |  | 
43 | Cc1sc(C(F)(F)F)nc1-c1ccc(NCc2c(F)cccc2F)cc1 | < 600 | < 600 |  |  | 
44 | Cc1sc(C(F)(F)F)nc1-c1ccc(NCc2c(F)cc(F)cc2F)cc1 | < 600 | < 600 |  |  | 
45 | Cc1cc(F)ccc1CNc1ccc(-c2cc(C(F)(F)F)nn2C)c(F)c1 | < 600 | < 600 |  |  | 
46 | Cc1cc(F)ccc1CNc1ccc(-n2nc(C(F)(F)F)cc2C)c(F)c1 | < 600 | 600 to 1200 |  |  | 
47 | Cc1cc(F)ccc1CNc1ccc(-n2cc(C(F)(F)F)nc2C)c(F)c1 | < 600 | > 1200 |  |  | 
48 | Cc1cc(F)ccc1CNc1ccc(-c2cc(C(F)F)nn2C)c(F)c1 | < 600 | 600 to 1200 |  |  | 
49 | CCn1nc(C(F)(F)F)cc1-c1ccc(NCc2c(F)cc(F)cc2F)cc1F | < 600 | 600 to 1200 |  |  | 
50 | O=C(Nc1ccc(-n2nc(C(F)(F)F)cc2C(F)(F)F)cc1)c1ccccc1F |  |  |  |  | < 600
